Each block holds one compound with its values, some of them ahead of it.
Key:
hHDAC8 = molecular target: T1, hHDAC8 (Homo sapiens, UniProt Q9BY41); test: HDAC8 activity assay; type: biochemical
T1 sequence (Q9BY41 1-377): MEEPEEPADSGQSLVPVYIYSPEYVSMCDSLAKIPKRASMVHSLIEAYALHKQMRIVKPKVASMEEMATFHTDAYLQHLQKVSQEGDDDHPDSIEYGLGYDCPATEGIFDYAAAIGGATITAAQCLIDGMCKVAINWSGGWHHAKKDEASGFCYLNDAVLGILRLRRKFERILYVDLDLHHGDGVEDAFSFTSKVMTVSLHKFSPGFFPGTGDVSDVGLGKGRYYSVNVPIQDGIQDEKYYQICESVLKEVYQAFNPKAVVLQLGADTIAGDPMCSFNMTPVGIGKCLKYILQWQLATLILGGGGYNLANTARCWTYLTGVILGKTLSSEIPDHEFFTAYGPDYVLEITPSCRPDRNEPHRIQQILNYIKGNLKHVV

hHDAC1 = hHDAC1 (Homo sapiens, UniProt Q13547); test: recombinant HDAC1 homogenous fluorescence assay
drHDAC10 = molecular target: T2, drHDAC10 (Danio rerio, UniProt F1QCV2); test: drHDAC10 enzymatic in vitro assay; type: biochemical
T2 sequence (F1QCV2 1-675): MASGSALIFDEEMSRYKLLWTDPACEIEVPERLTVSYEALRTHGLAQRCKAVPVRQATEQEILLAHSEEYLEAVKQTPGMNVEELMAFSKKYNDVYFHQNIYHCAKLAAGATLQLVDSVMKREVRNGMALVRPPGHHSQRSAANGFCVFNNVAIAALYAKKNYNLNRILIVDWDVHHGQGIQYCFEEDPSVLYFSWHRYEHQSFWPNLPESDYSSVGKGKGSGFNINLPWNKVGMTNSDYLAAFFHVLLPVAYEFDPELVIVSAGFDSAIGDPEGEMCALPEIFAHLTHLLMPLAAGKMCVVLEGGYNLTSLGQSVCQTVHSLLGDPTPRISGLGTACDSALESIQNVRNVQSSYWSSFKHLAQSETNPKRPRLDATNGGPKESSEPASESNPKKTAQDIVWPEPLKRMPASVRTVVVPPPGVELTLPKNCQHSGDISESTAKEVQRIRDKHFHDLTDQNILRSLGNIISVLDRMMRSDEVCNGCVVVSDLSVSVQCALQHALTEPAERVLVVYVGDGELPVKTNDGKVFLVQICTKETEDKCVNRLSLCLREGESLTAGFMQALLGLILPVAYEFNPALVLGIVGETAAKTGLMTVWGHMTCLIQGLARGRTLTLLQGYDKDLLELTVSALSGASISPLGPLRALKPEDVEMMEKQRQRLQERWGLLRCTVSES

hHDAC6 = molecular target: T3, hHDAC6 (Homo sapiens, UniProt Q9UBN7); test: recombinant HDAC6 homogenous fluorescence assay
T3 sequence (Q9UBN7 1-1215): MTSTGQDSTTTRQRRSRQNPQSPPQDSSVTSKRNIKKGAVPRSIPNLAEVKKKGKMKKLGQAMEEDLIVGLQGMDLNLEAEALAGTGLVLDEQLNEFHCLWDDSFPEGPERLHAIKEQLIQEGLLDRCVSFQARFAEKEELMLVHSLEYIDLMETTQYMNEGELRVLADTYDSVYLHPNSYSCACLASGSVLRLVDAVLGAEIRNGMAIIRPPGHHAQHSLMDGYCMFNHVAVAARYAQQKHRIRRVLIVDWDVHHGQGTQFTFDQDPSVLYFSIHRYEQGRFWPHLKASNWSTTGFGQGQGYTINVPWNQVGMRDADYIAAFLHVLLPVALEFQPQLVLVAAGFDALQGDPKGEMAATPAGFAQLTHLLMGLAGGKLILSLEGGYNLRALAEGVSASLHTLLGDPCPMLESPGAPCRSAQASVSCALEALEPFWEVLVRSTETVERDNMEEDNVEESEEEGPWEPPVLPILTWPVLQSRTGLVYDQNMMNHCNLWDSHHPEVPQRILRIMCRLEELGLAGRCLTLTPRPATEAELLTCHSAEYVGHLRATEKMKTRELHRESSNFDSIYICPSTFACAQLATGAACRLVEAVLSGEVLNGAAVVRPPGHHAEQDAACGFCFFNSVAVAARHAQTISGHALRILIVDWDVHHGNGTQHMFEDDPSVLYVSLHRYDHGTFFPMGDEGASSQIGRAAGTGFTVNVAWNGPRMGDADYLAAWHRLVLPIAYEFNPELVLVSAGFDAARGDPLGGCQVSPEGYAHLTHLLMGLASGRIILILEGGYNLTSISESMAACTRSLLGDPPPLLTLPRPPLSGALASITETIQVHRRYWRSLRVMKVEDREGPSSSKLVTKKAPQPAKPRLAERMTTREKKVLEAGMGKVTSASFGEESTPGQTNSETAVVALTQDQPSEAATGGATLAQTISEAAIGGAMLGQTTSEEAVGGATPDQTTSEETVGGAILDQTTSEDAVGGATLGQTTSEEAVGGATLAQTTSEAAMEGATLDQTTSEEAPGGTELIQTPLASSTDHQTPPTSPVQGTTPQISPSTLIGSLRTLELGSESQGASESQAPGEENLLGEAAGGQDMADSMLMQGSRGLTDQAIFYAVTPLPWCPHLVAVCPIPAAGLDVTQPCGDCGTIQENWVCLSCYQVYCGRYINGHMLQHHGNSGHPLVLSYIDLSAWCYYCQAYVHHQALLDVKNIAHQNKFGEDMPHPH

[1] = test system: SK-N-BE(2)-C neuroblastoma cells; test: LysoTracker assay; type: cell-based, Human; conditions: SK-N-BE(2)-C cells, 24 h
MV4–11 cells [2] = test: Cyto-ID detection of modulation of autophagy; type: cell-based; conditions: 2–15 μM, 24 h, with 10 μM chloroquine
[3] = test system: acetylated histone H3 in MV4–11 cells; test: Immunoblot for acetylated histone H3; type: cell-based; conditions: 24 h
[4] = test system: acetylated tubulin-α in MV4–11 cells; test: Immunoblot for acetylated tubulin-α; type: cell-based; conditions: 15 μM, 24 h, did not reach significance
MV4–11 cells [5] = test: Annexin-V-FITC / PI flow cytometry; type: cell-based; conditions: 2–15 μM, 24 h
[6] = test system: HDAC10 and GAPDH levels in MV4–11 cells; test: Immunoblot for HDAC10 and GAPDH levels; type: cell-based; conditions: 24 h

Sequence of hHDAC1 (Q13547 whole entry): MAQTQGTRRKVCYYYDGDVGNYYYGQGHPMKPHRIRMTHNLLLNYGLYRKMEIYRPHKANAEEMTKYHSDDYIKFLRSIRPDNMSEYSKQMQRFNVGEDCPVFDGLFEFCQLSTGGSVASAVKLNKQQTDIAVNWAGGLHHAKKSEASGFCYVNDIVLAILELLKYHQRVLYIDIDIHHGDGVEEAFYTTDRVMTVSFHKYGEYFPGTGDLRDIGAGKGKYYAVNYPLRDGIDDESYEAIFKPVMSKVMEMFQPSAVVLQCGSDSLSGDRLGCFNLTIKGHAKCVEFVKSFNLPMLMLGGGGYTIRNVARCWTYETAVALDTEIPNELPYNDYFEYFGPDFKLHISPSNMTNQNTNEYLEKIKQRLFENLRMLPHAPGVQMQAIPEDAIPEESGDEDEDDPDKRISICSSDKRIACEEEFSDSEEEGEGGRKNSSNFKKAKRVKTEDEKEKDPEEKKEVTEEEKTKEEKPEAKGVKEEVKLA

selectivity index (SI), hHDAC1 over drHDAC10 (hHDAC1): 417
Structure (SMILES): O=C(NO)c1ccc(CNCc2ccsc2)cc1 [4c, 4-{[(thiophen-3-ylmethyl)amino]methyl}benzhydroxamic acid]

drHDAC10 inhibition (in words) (drHDAC10): only weak HDAC10 inhibition
Structure (SMILES): O=C(NO)c1ccc(CN2CCCCC2)cc1 [6a, 4-(piperidin-1-ylmethyl)benzhydroxamic acid]

IC50 (hHDAC8): 2400 ± 210 nM
selectivity index (SI), hHDAC6 over drHDAC10 (hHDAC6): 9
Structure (SMILES): CN1CCN(Cc2ccc(C(=O)NO)cc2)CC1 [6b, 4-[(N-methylpiperazin-1-yl)methyl]benzhydroxamic acid]

IC50 (hHDAC8): 250 ± 50 nM
selectivity index (SI), hHDAC8 over drHDAC10 (hHDAC8): 23
selectivity index (SI), hHDAC1 over drHDAC10 (hHDAC1): 1454
selectivity index (SI), hHDAC6 over drHDAC10 (hHDAC6): 395
Structure (SMILES): O=C(/C=C/C1CCN(CCc2ccccc2)CC1)NO [10a, (E)-3-(1-phenethylpiperidin-4-yl)acrylhydroxamic acid]

IC50 (hHDAC8): 2500 ± 260 nM
Structure (SMILES): O=C(/C=C/C1CCN(Cc2cccc(Cl)c2)CC1)NO [10d, (E)-3-[1-(3-chlorobenzyl)piperidin-4-yl]acrylhydroxamic acid]

drHDAC10 inhibition (in words) (drHDAC10): Potent drHDAC10 inhibition
Structure (SMILES): O=C(/C=C/C1CCN(Cc2csc3ccccc23)CC1)NO [13a, (E)-3-{1-[benzothiophen-3-ylmethyl]piperidin-4-yl} acrylhydroxamic acid]

Further lines, the compound ahead of its results:

Structure (SMILES): O=C(NO)c1ccc(CNCc2ccccc2)cc1 [4a, 4-[(benzylamino)methyl]-benzhydroxamic acid]
selectivity index (SI), hHDAC8 over drHDAC10 (hHDAC8): 94

Structure (SMILES): O=C(NO)c1ccc(CNCc2cccs2)cc1 [4b, 4-{[(thiophen-2-ylmethyl)amino]methyl}benzhydroxamic acid]
selectivity index (SI), hHDAC8 over drHDAC10 (hHDAC8): 30
selectivity index (SI), hHDAC1 over drHDAC10 (hHDAC1): 85

Structure (SMILES): O=C(/C=C/C1CCN(CCc2c[nH]c3ccccc23)CC1)NO [10b, (E)-3-{1-[2-(1H-indol-3-yl)ethyl]piperidin-4-yl}acrylhydroxamic acid]
drHDAC10 inhibition (in words) (drHDAC10): Potent drHDAC10 inhibition
IC50 (hHDAC8): 420 ± 55 nM

Structure (SMILES): O=C(/C=C/C1CCN(Cc2cccc3ccccc23)CC1)NO [10c, (E)-3-[1-(naphthalen-1-ylmethyl)piperidin-4-yl]acrylhydroxamic acid]
drHDAC10 inhibition (in words) (drHDAC10): Potent drHDAC10 inhibition
IC50 (hHDAC8): 470 ± 70 nM
expansion and acidification of the lysosomal compartment (LysoTracker DND-99) [1]: induced the expansion and acidification of the lysosomal compartment
accumulation of cyto-ID positive vesicles (MV4–11 cells [2]): significantly induced the accumulation of cyto-ID positive vesicles
accumulation of acetylated histone H3 ([3]; 2–15 μM): did not induce a significant accumulation of acetylated histone H3
tubulin acetylation compared to non-treated cells [4]: 36–80 fold
apoptosis (annexin-V-FITC / PI) (MV4–11 cells [5]): did not trigger apoptosis
GAPDH levels [6]: no change of GAPDH levels
HDAC10 protein levels [6]: slightly increased levels of HDAC10

Structure (SMILES): Cn1cc(CN2CCC(/C=C/C(=O)NO)CC2)c2ccccc21 [13b, (E)-3-{1-[(1-methylindol-3-yl)methyl]piperidin-4-yl} acrylhydroxamic acid]
drHDAC10 inhibition (in words) (drHDAC10): Potent drHDAC10 inhibition
expansion and acidification of the lysosomal compartment (LysoTracker DND-99) [1]: induced the expansion and acidification of the lysosomal compartment
accumulation of cyto-ID positive vesicles (MV4–11 cells [2]): significantly induced the accumulation of cyto-ID positive vesicles
accumulation of acetylated histone H3 ([3]; 2–15 μM): did not induce a significant accumulation of acetylated histone H3
tubulin acetylation compared to non-treated cells [4]: 36–80 fold
apoptosis (annexin-V-FITC / PI) (MV4–11 cells [5]): did not trigger apoptosis
GAPDH levels [6]: no change of GAPDH levels
HDAC10 protein levels [6]: slightly increased levels of HDAC10

Structure (SMILES): Nc1ccccc1NC(=O)c1ccc(CNC(=O)OCc2cccnc2)cc1 [Entinostat (MS-275), entinostat, reference compound]
accumulation of acetylated histone H3 ([3]; 5 μM, positive control): induced a highly significant accumulation of acetylated histone H3

— article PMC9007901 (European journal of medicinal chemistry, 2022)
